# Reference: ChEMBL document CHEMBL3526057 (Drug Metab Dispos, 2011)
# What was measured:
# Assay type in all cases: ADME
# Settings in all cases: recombinant enzyme, 1 h
# Cytochrome P450 2C19 [1] = target: Cytochrome P450 2C19 (Homo sapiens, UniProt P33261, P227L); test: Activity of human recombinant CYP2C19.10 mutant expressed in Saccharomyces cerevisiae BJ5457 assessed as omeprazole 5'-hydroxylation per pmol protein at 100 uM after 60 mins
# Cytochrome P450 2C19 [2] = target: T1, Cytochrome P450 2C19 (Homo sapiens, UniProt P33261, R410C); test: Activity of human recombinant CYP2C19.13 mutant expressed in Saccharomyces cerevisiae BJ5457 assessed as omeprazole 5'-hydroxylation per pmol protein at 100 uM after 60 mins
# Cytochrome P450 2C19 [3] = target: T2, Cytochrome P450 2C19 (Homo sapiens, UniProt P33261, A161P); test: Activity of human recombinant CYP2C19 A161P mutant expressed in Saccharomyces cerevisiae BJ5457 assessed as omeprazole 5'-hydroxylation per pmol protein at 100 uM after 60 mins
# Cytochrome P450 2C19 [4] = target: T3, Cytochrome P450 2C19 (Homo sapiens, UniProt P33261, E122A); test: Activity of human recombinant CYP2C19 E122A mutant expressed in Saccharomyces cerevisiae BJ5457 assessed as omeprazole 5'-hydroxylation per pmol protein at 100 uM after 60 mins
# Cytochrome P450 2C19 [5] = target: T4, Cytochrome P450 2C19 (Homo sapiens, UniProt P33261, R144H); test: Activity of human recombinant CYP2C19.9 mutant expressed in Saccharomyces cerevisiae BJ5457 assessed asomeprazole 5'-hydroxylation after 60 mins
# Cytochrome P450 2C19 [6] = target: T5, Cytochrome P450 2C19 (Homo sapiens, UniProt P33261, R329H); test: Activity of human recombinant CYP2C19.18 mutant expressed in Saccharomyces cerevisiae BJ5457 assessed asomeprazole 5'-hydroxylation after 60 mins
# Cytochrome P450 2C19 [7] = target: T2, Cytochrome P450 2C19; test: Activity of human recombinant CYP2C19 A161P mutant expressed in Saccharomyces cerevisiae BJ5457 assessed asomeprazole 5'-hydroxylation after 60 mins
# Cytochrome P450 2C19 [8] = target: Cytochrome P450 2C19 (Homo sapiens, UniProt P33261, D360N); test: Activity of human recombinant CYP2C19 D360N mutant expressed in Saccharomyces cerevisiae BJ5457 assessed asomeprazole 5'-hydroxylation after 60 mins
# Cytochrome P450 2C19 [9] = target: Cytochrome P450 2C19 (Homo sapiens, UniProt P33261, W212C); test: Activity of human recombinant CYP2C19 W212C mutant expressed in Saccharomyces cerevisiae BJ5457 assessed asomeprazole 5'-hydroxylation after 60 mins
# Cytochrome P450 2C19 [10] = target: T6, Cytochrome P450 2C19 (Homo sapiens, UniProt P33261); test: Activity of human recombinant CYP2C19.1A mutant expressed in Saccharomyces cerevisiae BJ5457 assessed asomeprazole 5'-hydroxylation per pmol protein after 60 mins
# Cytochrome P450 2C19 [11] = target: T6, Cytochrome P450 2C19; test: Activity of human recombinant CYP2C19.1B mutant expressed in Saccharomyces cerevisiae BJ5457 assessed asomeprazole 5'-hydroxylation per pmol protein after 60 mins
# Cytochrome P450 2C19 [12] = target: T4, Cytochrome P450 2C19; test: Activity of human recombinant CYP2C19.9 mutant expressed in Saccharomyces cerevisiae BJ5457 assessed asomeprazole 5'-hydroxylation per pmol protein after 60 mins
# Cytochrome P450 2C19 [13] = target: T7, Cytochrome P450 2C19 (Homo sapiens, UniProt P33261, R150H); test: Activity of human recombinant CYP2C19.11 mutant expressed in Saccharomyces cerevisiae BJ5457 assessed asomeprazole 5'-hydroxylation per pmol protein after 60 mins
# Cytochrome P450 2C19 [14] = target: T6, Cytochrome P450 2C19; test: Activity of human recombinant CYP2C19.1A mutant expressed in Saccharomyces cerevisiae BJ5457 assessed as omeprazole 5'-hydroxylation per pmol protein at 5 uM after 60 mins
# [15] = Activity of human recombinant CYP2C19.6 mutant expressed in Saccharomyces cerevisiae BJ5457 assessed as omeprazole 5'-hydroxylation per pmol protein at 5 uM after 60 mins
# Cytochrome P450 2C19 [16] = target: T4, Cytochrome P450 2C19; test: Activity of human recombinant CYP2C19.9 mutant expressed in Saccharomyces cerevisiae BJ5457 assessed as omeprazole 5'-hydroxylation per pmol protein at 5 uM after 60 mins
# Cytochrome P450 2C19 [17] = target: T8, Cytochrome P450 2C19 (Homo sapiens, UniProt P33261, I19L); test: Activity of human recombinant CYP2C19.15 mutant expressed in Saccharomyces cerevisiae BJ5457 assessed as omeprazole 5'-hydroxylation per pmol protein at 5 uM after 60 mins
# Cytochrome P450 2C19 [18] = target: Cytochrome P450 2C19 (Homo sapiens, UniProt P33261, V331I/R442C); test: Activity of human recombinant CYP2C19.16 mutant expressed in Saccharomyces cerevisiae BJ5457 assessed as omeprazole 5'-hydroxylation per pmol protein at 5 uM after 60 mins
# Cytochrome P450 2C19 [19] = target: T3, Cytochrome P450 2C19; test: Activity of human recombinant CYP2C19 E122A mutant expressed in Saccharomyces cerevisiae BJ5457 assessed as omeprazole 5'-hydroxylation per pmol protein at 5 uM after 60 mins
# Cytochrome P450 2C19 [20] = target: T6, Cytochrome P450 2C19; test: Activity of human recombinant CYP2C19.1A mutant expressed in Saccharomyces cerevisiae BJ5457 assessed as omeprazole 5'-hydroxylation per pmol protein at 100 uM after 60 mins
# Cytochrome P450 2C19 [21] = target: T6, Cytochrome P450 2C19; test: Activity of human recombinant CYP2C19.1B mutant expressed in Saccharomyces cerevisiae BJ5457 assessed as omeprazole 5'-hydroxylation per pmol protein at 100 uM after 60 mins
# Cytochrome P450 2C19 [22] = target: T8, Cytochrome P450 2C19; test: Activity of human recombinant CYP2C19.15 mutant expressed in Saccharomyces cerevisiae BJ5457 assessed asomeprazole 5'-hydroxylation per pmol protein after 60 mins
# Cytochrome P450 2C19 [23] = target: T5, Cytochrome P450 2C19; test: Activity of human recombinant CYP2C19.18 mutant expressed in Saccharomyces cerevisiae BJ5457 assessed asomeprazole 5'-hydroxylation per pmol protein after 60 mins
# Cytochrome P450 2C19 [24] = target: T6, Cytochrome P450 2C19; test: Activity of human recombinant CYP2C19.1B mutant expressed in Saccharomyces cerevisiae BJ5457 assessed as intrinisic clearance foromeprazole 5'-hydroxylation per pmol protein after 60 mins
# Cytochrome P450 2C19 [25] = target: T7, Cytochrome P450 2C19; test: Activity of human recombinant CYP2C19.11 mutant expressed in Saccharomyces cerevisiae BJ5457 assessed as intrinisic clearance foromeprazole 5'-hydroxylation per pmol protein after 60 mins
# Cytochrome P450 2C19 [26] = target: T1, Cytochrome P450 2C19; test: Activity of human recombinant CYP2C19.13 mutant expressed in Saccharomyces cerevisiae BJ5457 assessed as intrinisic clearance foromeprazole 5'-hydroxylation per pmol protein after 60 mins
# Cytochrome P450 2C19 [27] = target: Cytochrome P450 2C19 (Homo sapiens, UniProt P33261, L17P); test: Activity of human recombinant CYP2C19.14 mutant expressed in Saccharomyces cerevisiae BJ5457 assessed as intrinisic clearance foromeprazole 5'-hydroxylation per pmol protein after 60 mins
# Cytochrome P450 2C19 [28] = target: T8, Cytochrome P450 2C19; test: Activity of human recombinant CYP2C19.15 mutant expressed in Saccharomyces cerevisiae BJ5457 assessed as intrinisic clearance foromeprazole 5'-hydroxylation per pmol protein after 60 mins
# Cytochrome P450 2C19 [29] = target: T5, Cytochrome P450 2C19; test: Activity of human recombinant CYP2C19.18 mutant expressed in Saccharomyces cerevisiae BJ5457 assessed as intrinisic clearance foromeprazole 5'-hydroxylation per pmol protein after 60 mins
# Cytochrome P450 2C19 [30] = target: Cytochrome P450 2C19 (Homo sapiens, UniProt P33261, E92D); test: Activity of human recombinant CYP2C19 E92D mutant expressed in Saccharomyces cerevisiae BJ5457 assessed as intrinisic clearance foromeprazole 5'-hydroxylation per pmol protein after 60 mins
# Cytochrome P450 2C19 [31] = target: Cytochrome P450 2C19 (Homo sapiens, UniProt P33261, F168L); test: Activity of human recombinant CYP2C19 F168L mutant expressed in Saccharomyces cerevisiae BJ5457 assessed as intrinisic clearance foromeprazole 5'-hydroxylation per pmol protein after 60 mins
smiles,measurement,setting,value
COc1ccc2[nH]c([S+]([O-])Cc3ncc(C)c(OC)c3C)nc2c1 (stereo unspecified) [OMEPRAZOLE],Drug metabolism,Cytochrome P450 2C19 [1],5 pmol/min
same,Drug metabolism,Cytochrome P450 2C19 [2],8.55 pmol/min
same,Drug metabolism,Cytochrome P450 2C19 [3],1.39 pmol/min
same,Drug metabolism,Cytochrome P450 2C19 [4],4.71 pmol/min
same,Km,Cytochrome P450 2C19 [5],10.1 µM
same,Km,Cytochrome P450 2C19 [6],6.02 µM
same,Km,Cytochrome P450 2C19 [7],6.68 µM
same,Km,Cytochrome P450 2C19 [8],7.81 µM
same,Km,Cytochrome P450 2C19 [9],11.2 µM
same,Vmax,Cytochrome P450 2C19 [10],7.97 pmol/min
same,Vmax,Cytochrome P450 2C19 [11],5.12 pmol/min
same,Vmax,Cytochrome P450 2C19 [12],6.21 pmol/min
same,Vmax,Cytochrome P450 2C19 [13],8.34 pmol/min
same,Drug metabolism,Cytochrome P450 2C19 [14],2.75 pmol/min
same,Drug metabolism,[15],metabolite_not_detected
same,Drug metabolism,Cytochrome P450 2C19 [16],1.95 pmol/min
same,Drug metabolism,Cytochrome P450 2C19 [17],3.41 pmol/min
same,Drug metabolism,Cytochrome P450 2C19 [18],0.65 pmol/min
same,Drug metabolism,Cytochrome P450 2C19 [19],1.58 pmol/min
same,Drug metabolism,Cytochrome P450 2C19 [20],5.87 pmol/min
same,Drug metabolism,Cytochrome P450 2C19 [21],5.36 pmol/min
same,Vmax,Cytochrome P450 2C19 [22],8.18 pmol/min
same,Vmax,Cytochrome P450 2C19 [23],7.77 pmol/min
same,CL,Cytochrome P450 2C19 [24],1.24 µL/min
same,CL,Cytochrome P450 2C19 [25],1.68 µL/min
same,CL,Cytochrome P450 2C19 [26],1.54 µL/min
same,CL,Cytochrome P450 2C19 [27],1.91 µL/min
same,CL,Cytochrome P450 2C19 [28],1.21 µL/min
same,CL,Cytochrome P450 2C19 [29],1.3 µL/min
same,CL,Cytochrome P450 2C19 [30],0.79 µL/min
same,CL,Cytochrome P450 2C19 [31],0.94 µL/min
